The values below come from patent US20260306641A1, “HELICASE DEGRADERS” (priority 2023, published 2026).

The test system of experiment [1] is T1, human CMG helicase (hCMG).
T1 construct: made in house; host or cells: High Five insect cells, baculovirus (11 viruses co-infected)
In words: hCMG helicase fork-unwinding (strand displacement) assay. The class given is biochemical. The settings on record: for inhibition of hCMG helicase activity, SAR set: 500 μM compound. The method, then: The human CMG helicase was purified following the established and validated protocol of Hurwitz and colleagues(19,20), with minor modifications. A detailed description of the approach is shown here, to allow for comparisons to the methods described by the Hurwitz group.
High Five insect cells (2-3 million cells/ml, 1.5 L), were in cultured in a shaking incubator at 27° C. in suspension with ESF921 serum free medium (Expression Systems, CA; cat. #96-001-01), then co-infected for 60 hrs with 11 baculoviruses expressing human 6His2Flag-Cdc45, the human MCM hexamer (Mcm2, Mcm3, Mcm4, Mem5, Mcm6, Mcm7), and human GINS (GST-Sld5, Psf3, Psf2, and Psf1). Each virus was infected at an MOI of ~10 from individual virus stocks. Infected cells were harvested by centrifugation at 650×g for 5 min at 4° C., washed with cold PBS, frozen on dry ice, and stored at −80° C. until use. The cell pellet (~20 mL) was thawed on ice, resuspended in 45 ml Hypotonic Buffer [20 mM Hepes-NaOH (pH 7.5), 5 mM KCl, 1.5 mM MgCl2] with protease inhibitors (1 mM [COMPOUND LEFT OUT], 1 mM Benzamidine, 0.15 μM Aprotinin, 4 μM Leupeptin, and 1 μM Antipain), and kept on ice for 10 min before lysing by Dounce homogenization (tight fitting, 60 strokes). The cell extract was adjusted to 0.42 M potassium acetate and centrifuged at 43,000×g for 1 hr at 4° C. The cleared lysate was mixed with 0.75 ml glutathione beads (cat. #17-0756-05; GE Healthcare) pre-equilibrated with FEQ buffer [20 mM Hepes-NaOH (pH 7.5), 0.42 M potassium acetate, 5 mM KCl, 1.5 mM MgCl2] and incubated by rotation at 4° C. overnight. Following centrifugation at 290×g at 4° C., the bound glutathione beads were washed four times (15 min each wash) with 40 ml of FW buffer [20 mM Hepes-NaOH (pH 7.5), 0.42 M potassium acetate, 1 mM DTT, 1 mM EDTA, 0.01% NP40, 10% glycerol (vol/vol) with protease inhibitors as above] containing protease inhibitors (as above). Bound proteins were eluted at 4° C. three times (1 hr each elution) with 3.5 ml Q buffer [20 mM Hepes-NaOH (pH 7.5), 1 mM DTT, 1 mM EDTA, 0.01% NP40, 10% glycerol (vol/vol), and protease inhibitors as above] containing 0.15 M potassium acetate and 20 mM reduced glutathione. The eluted fractions were combined and applied to a HiTrap Q-Sepharose FF column (HiTrap Q FF 1 mL, cat. #17505301, Cytiva), pre-equilibrated 3× with 5 ml of Q buffer containing 0.15 M, 0.75 M, 0.15M potassium acetate, in sequence. The Q-Sepharose FF column was washed with 10 ml of FW buffer containing protease inhibitors (as above). The proteins were eluted with 10 ml of Q buffer containing 0.75 M potassium acetate. The eluted fraction was mixed with 0.15 ml of anti-Flag M2 affinity gel/beads and incubated while rotating at 4° C. overnight. After centrifugation at 290×g for 5 min at 4° C., the beads were washed three times with 10 ml PreScission buffer [50 mM Tris-HCl (pH 7.5), 0.15 M NaCl, 1 mM DTT, 1 mM EDTA] for 15 min at 4° C., and eluted at 4° C. three times (1 hr each elution) with 0.2 ml PreScission enzyme buffer containing 0.2 mg/ml 3×-Flag peptides. The combined eluates were incubated with 20 Units of PreScission Protease (GE Healthcare) and 0.1 mL glutathione beads for 4 hr at 4° C. The supernatant was layered onto a 15-40% glycerol gradient [25 mM Tris-HCl (pH 7.5), 50 mM NaCl, 1 mM DTT, 1 mM EDTA, 0.01% NP40, protease inhibitors as above] in a 5 mL ultra-centrifugation tube and centrifuged at 260,000×g for 14 hr at 4° C. Glycerol fractions (0.15 mL each fraction) were collected from bottom of tube and stored at −80° C. until use. Typically, fractions 6-9 contained complete hCMG (~750-800 kDa) and co-migrated with thyroglobulin.
Helicase fork-unwinding assays were performed at 37° C. for 1 hr in 20 μL reaction volumes using 2-4 μl of hCMG (~15-30 fmol), in a buffer consisting of 25 mM Hepes-NaOH (pH 7.5), 5 mM NaCl, 0.5 mM ATP, 10 mM magnesium acetate, 1 mM DTT, 0.1 mg/ml bovine serum albumin (BSA), and ~10 fmol of radiolabeled DNA forks (20). […]

Experiment [2] concerns T1, human CMG helicase (hCMG). The experiment can be described thus: hCMG ATPase activity, FP ADP^2 Transcreener assay. The class given is biochemical. Particulars: role: product, 15 fmol hCMG, 500 μM ATP. How it is done: The fluorescent-polarization (FP) ADP-sensing assays were performed using the Transcreener® ADP^2 FP assay kit (cat #3010-1K, Bellbrook Labs). For hCMG inhibitor screening, assays were performed at 37° C. for 1 hr in 10 μl reactions in a 384-well plate (cat. #4514, Corning) using 2 μL of hCMG (~15 fmol), 25 mM Hepes-NaOH (pH 7.5), 10 mM NaCl, 0.5 mM ATP, 10 mM magnesium acetate, 1 mM DTT, 0.1 mg/ml BSA, and DNA fork substrates. […] Selected inhibitors or samples from a chemical library were added into the reactions when conducting the screening or testing inhibitor effectiveness. The NCI Diversity Set VI chemical library was obtained from the National Cancer Institute (Bethesda, MD).
The window of sensitivity for the ADP-sensing assays is determined by setting up two 10 μL control samples without any added hCMG helicase: a Low-FP mixture (4 nM ADP Alexa Fluor-633 Tracer alone) and a High-FP mixture (4 nM ADP Alexa Fluor-633 Tracer plus patented anti-ADP^2 Antibody). The amount of ADP^2 Antibody used had to be adjusted to account for the use of 500 μM ATP in our hCMG assays, versus 10 μM ATP in enzyme reactions typically assessed with standard kits prepared by BellBrook Labs. […] This was done according to the manufacturer by performing a titration with increasing ADP^2 Antibody, fixed 4 nM ADP Alexa Fluor-633 Tracer, and 500 μM ATP to determine the ~EC80-85 for millipol (mP) changes, which determined the optimal ADP^2 Antibody concentration to use as 0.64 mg/ml (FIG. 9A). Samples are read with a Perkin Elmer Envision II plate reader with optimized Cy5 (far-red) FP-compatible mirror and cubes (cat #2100-8390, Perkin Elmer). The Low-FP sample is the least polarized and gives a low mP reading, while the High-FP sample is the most polarized and gives the highest mP reading. The difference between the Low-FP and High-FP values defines the FP assay window, which is normally in a range of 150-200 mP under ideal conditions for screening purposes. The hCMG helicase hydrolyzes ATP to ADP and decreases the mP reading within this window, with an ideal change (ΔmP) in the FP window of at least 50% to be in a readable range for inhibitor screening (as per manufacturer). Potential hCMG chemical inhibitors reverse this effect and cause the mP readings to increase.
We performed a titration with increasing and decreasing concentrations of ADP and ATP, respectively, to assess the sensitivity of the FP assay in detecting ADP production (FIG. 9B). Consistent with the stated manufacturer predictions, the assay can reliably detect 1-3% changes in ADP production (i.e., 5-15 μM ADP production) in starting concentrations of ATP of 500 μM, with a Z′ efficiency between 0.6-0.8 (determined following manufacturer protocols).
Once the hCMG enzyme reactions are complete, 10 μL of 1× Stop Solution and Detection Buffer (buffer from BellBrook Labs; containing 4 nM ADP Alexa Fluor-633 Tracer plus ADP^2 Antibody) are added to each reaction, and to the High-FP control. The Low-FP control receives 10 μL of 1× Stop Solution and Detection Buffer containing only 4 nM ADP Alexa Fluor-633 Tracer (no Antibody). Samples are incubated at 25° C. for 1 hr, then read in the plate reader. […] Plate readings from these tests of potential positive hits should be similar to that seen with the Low-FP control, or such hits may instead be false-positives.

The subject of experiment [3] is MCM/CMG and replisome proteins in HaCaT cells. The experiment can be described thus: Immunoblots of chromatin-bound or total proteins, synchronized HaCaT cells. The settings on record: S-phase cells; etoposide 5 μM. The format is cell-based, human. In general terms: Immunoblotting shows a protein as a band on a membrane.
For another experiment, the system named is HaCaT cells. The experiment can be described thus: BrdU labeling of DNA replication in synchronized HaCaT cells. Particulars: treated at 18 hrs, analyzed 3 hrs later; CA1/novobiocin 15 μM, etoposide 5 μM. The format is cell-based, human. How it is done: Verification of synchronization and determination of drug effects was performed by measuring the incorporation of bromo-deoxyuridine (BrdU) into replicating foci within nuclei. At times indicated, cells were pulse-labeled with 15 μM BrdU for 30 min, fixed with 4% paraformaldehyde, and analyzed by standard immunofluorescent techniques(40,51) with an anti-BrdU monoclonal antibody (Roche, clone no. BMC9318, RRID:AB_2313622). The average counts of three fields of 100 or more cells were used to determine the percentages of BrdU-labeled nuclei, +/−1 s.d.

T1 sequence (P49736 whole entry): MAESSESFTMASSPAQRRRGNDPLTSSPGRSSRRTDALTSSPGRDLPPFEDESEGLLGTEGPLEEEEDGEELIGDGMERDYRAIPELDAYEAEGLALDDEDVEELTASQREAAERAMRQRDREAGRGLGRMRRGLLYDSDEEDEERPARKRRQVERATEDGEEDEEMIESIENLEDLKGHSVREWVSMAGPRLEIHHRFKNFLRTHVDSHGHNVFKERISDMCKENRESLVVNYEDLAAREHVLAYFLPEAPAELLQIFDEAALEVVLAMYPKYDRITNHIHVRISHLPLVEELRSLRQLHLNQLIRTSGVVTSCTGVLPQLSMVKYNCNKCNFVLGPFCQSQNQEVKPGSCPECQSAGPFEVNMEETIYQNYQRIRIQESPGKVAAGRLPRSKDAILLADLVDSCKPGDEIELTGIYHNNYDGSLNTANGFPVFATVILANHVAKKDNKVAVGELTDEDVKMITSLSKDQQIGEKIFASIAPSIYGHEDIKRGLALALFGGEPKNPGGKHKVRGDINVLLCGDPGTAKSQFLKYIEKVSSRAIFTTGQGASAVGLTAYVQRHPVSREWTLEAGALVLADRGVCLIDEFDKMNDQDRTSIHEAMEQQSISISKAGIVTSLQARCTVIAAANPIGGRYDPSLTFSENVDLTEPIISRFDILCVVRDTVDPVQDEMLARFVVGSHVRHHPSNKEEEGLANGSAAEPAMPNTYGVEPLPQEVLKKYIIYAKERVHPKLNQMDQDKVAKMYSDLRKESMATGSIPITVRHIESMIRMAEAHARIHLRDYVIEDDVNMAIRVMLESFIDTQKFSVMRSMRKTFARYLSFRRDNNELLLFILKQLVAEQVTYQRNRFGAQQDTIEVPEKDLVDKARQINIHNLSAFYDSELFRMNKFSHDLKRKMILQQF
T1 sequence (P25205 whole entry, further chain): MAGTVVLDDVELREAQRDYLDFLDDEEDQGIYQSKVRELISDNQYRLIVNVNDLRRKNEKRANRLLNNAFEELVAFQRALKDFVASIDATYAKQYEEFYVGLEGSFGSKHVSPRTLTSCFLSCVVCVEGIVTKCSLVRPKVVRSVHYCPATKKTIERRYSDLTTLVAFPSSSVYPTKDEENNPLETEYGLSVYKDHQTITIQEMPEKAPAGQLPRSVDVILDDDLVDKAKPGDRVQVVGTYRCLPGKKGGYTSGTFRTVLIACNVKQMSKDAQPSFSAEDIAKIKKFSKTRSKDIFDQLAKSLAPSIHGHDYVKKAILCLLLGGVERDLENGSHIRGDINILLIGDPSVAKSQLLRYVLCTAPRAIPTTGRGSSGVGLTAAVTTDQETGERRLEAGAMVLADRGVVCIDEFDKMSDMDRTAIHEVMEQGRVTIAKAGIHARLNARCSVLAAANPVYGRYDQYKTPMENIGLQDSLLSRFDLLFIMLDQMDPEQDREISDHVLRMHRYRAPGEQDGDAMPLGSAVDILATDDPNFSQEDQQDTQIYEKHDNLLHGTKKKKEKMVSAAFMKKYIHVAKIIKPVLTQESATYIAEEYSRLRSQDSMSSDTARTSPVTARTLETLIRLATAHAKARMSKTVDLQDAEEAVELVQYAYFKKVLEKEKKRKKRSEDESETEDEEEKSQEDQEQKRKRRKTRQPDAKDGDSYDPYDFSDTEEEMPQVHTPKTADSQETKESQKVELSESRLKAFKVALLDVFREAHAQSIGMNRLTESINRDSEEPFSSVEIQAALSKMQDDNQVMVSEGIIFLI
T1 sequence (P33991 whole entry, further chain): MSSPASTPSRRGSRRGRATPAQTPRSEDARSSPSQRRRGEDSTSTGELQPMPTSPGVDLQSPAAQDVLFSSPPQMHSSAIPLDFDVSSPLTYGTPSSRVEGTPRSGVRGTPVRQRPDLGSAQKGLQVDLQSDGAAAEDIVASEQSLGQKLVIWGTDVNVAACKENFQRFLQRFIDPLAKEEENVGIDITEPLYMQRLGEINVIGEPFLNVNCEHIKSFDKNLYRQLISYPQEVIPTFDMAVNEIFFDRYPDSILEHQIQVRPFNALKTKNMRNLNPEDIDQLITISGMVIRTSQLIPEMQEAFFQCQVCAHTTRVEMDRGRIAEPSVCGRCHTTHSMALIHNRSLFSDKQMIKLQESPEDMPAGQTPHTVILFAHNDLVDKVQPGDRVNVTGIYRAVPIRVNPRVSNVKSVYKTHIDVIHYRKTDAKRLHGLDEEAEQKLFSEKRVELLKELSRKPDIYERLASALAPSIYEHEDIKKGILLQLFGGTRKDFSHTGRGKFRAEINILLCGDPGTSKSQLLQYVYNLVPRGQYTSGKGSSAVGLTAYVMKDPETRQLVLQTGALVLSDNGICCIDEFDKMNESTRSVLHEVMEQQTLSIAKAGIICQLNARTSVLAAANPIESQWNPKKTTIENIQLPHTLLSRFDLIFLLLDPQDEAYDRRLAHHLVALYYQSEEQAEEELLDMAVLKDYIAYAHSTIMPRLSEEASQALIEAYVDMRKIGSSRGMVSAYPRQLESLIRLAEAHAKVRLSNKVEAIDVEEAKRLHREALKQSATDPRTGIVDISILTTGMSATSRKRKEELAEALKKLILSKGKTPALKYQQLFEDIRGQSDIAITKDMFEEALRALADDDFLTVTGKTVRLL
T1 sequence (P33992 whole entry, further chain): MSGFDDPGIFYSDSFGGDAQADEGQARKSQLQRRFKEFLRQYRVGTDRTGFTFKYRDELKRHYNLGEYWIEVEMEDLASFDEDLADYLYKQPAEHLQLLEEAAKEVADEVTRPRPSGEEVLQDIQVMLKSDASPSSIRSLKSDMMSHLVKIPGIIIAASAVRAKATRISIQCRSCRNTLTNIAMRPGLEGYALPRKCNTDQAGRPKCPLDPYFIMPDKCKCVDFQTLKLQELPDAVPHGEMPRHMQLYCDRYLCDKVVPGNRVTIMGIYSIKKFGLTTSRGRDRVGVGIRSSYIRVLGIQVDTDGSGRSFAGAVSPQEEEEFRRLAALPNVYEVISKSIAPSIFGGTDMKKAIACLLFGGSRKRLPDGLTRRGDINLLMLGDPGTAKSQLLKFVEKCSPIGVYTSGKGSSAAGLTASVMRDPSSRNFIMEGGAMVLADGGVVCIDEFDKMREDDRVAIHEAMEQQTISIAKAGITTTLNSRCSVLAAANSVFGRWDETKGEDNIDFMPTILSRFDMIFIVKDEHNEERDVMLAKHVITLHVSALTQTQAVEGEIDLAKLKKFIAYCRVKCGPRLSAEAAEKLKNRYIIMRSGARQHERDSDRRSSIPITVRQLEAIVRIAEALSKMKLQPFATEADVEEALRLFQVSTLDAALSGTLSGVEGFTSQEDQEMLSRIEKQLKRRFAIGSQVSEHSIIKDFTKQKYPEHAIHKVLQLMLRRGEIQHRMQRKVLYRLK
T1 sequence (Q14566 whole entry, further chain): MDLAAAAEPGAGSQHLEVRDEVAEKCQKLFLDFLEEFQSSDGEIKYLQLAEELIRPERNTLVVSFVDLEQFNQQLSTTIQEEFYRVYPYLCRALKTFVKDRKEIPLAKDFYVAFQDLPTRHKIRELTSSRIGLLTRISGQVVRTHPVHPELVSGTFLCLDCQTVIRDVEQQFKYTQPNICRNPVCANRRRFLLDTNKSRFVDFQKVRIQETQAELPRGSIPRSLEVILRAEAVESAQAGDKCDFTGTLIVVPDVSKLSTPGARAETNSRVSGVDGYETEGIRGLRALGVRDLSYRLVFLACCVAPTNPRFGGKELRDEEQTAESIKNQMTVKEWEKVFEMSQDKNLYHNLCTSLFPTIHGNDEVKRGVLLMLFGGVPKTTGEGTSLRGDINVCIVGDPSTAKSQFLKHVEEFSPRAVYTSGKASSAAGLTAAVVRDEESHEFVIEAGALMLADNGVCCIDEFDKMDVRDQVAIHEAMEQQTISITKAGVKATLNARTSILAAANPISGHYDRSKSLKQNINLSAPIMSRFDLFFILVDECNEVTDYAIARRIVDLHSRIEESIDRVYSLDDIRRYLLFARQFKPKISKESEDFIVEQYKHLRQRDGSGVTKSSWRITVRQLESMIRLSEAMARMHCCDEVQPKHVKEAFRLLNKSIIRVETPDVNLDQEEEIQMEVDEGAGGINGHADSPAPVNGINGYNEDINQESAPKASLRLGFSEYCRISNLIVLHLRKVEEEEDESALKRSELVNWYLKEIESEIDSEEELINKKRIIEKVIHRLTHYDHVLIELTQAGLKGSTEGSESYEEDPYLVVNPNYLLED
T1 sequence (P33993 whole entry, further chain): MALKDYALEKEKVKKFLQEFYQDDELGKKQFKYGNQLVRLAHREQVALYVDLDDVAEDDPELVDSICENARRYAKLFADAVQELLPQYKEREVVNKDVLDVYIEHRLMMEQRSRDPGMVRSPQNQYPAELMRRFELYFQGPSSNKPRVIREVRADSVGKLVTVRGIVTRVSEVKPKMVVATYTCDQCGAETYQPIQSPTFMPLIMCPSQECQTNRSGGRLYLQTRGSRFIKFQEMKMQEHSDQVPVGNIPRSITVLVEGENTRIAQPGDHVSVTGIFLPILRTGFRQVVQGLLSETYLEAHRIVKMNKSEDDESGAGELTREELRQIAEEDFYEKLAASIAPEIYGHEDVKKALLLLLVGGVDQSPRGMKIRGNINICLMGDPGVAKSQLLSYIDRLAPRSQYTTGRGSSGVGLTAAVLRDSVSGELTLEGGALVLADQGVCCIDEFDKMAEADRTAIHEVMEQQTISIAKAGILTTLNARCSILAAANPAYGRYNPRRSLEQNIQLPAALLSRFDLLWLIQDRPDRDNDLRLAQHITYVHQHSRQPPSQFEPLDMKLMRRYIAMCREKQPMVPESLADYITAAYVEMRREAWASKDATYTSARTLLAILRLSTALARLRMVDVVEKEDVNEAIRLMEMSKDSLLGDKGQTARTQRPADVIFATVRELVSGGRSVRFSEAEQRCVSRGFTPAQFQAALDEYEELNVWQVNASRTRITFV

Consider `CO[C@@H]1[C@@H](OC(=O)c2ccc(C)[nH]2)[C@@H](O)C(O)OC1(C)C` (mixture of isomers) [MBC-D1, (3R,4S,5R)-5,6-Dihydroxy-3-methoxy-2,2-dimethyltetrahydro-2H-pyran-4-y 5-methyl-1H-pyrrole-2-carboxylate], for which the “inhibition of hCMG helicase activity, SAR set” value (“inhibition … SAR set” below) in experiment [1] is recorded as “only a small level of inhibition”.

`Nc1ncnc2c1ncn2[C@@H]1O[C@H](COP(=O)(O)OP(=O)(O)O)[C@@H](O)[C@H]1O` [ADP]: the “ADP conversion rate by the hCMG” value in experiment [2] was ~ 1.5%. For the same compound, the “production of ADP” value in experiment [2] (10 μL reaction, 1 hr) was in the range of 7 to 8 µM.

On to `Nc1ncnc2c1ncn2[C@@H]1O[C@H](COP(=O)(O)OP(=O)(O)OP(O)(O)=S)[C@@H](O)[C@H]1O` [ATP-γ-S], for which the “suppression of fork-unwinding activity” value in experiment [1] (500 μM ATP, increasing ATP-gamma-S) is on record as “dose-dependent suppression of fork-unwinding activity”.

As a reminder, the IC50 is the point on the concentration scale where inhibition reaches its midpoint. With `CO[C@@H]1[C@@H](OC(=O)c2ccc(C)[nH]2)[C@@H](O)[C@H](Oc2ccc3c(O)c(NC(=O)c4ccc(O)c(CC=C(C)C)c4)c(=O)oc3c2C)OC1(C)C` [MBC, (3R,4S,5R,6R)-5-Hydroxy-6-((4-hydroxy-3-(4-hydroxy-3-(3-methylbut-2-en-1-yl)benzamido)-8-methyl-2-oxo-2H-chromen-7-yl)oxy)-3-methoxy-2,2-dimethyltetrahydro-2H-pyran-4-yl], the 50% inhibitory concentration (IC50) in experiment [1] (fork-unwinding, read-out: IC50 for hCMG helicase inhibition) was ~59 µM.

`CC(C)=CCc1cc(C(=O)Nc2c(O)c3ccc(O)c(C)c3oc2=O)ccc1O` [MBC-D2, N-(4,7-Dihydroxy-8-methyl2-oxo-2H-chromen-3-yl)-4-hydroxy-3-(3-methylbut-2-en-1-yl)benzamide]: the “inhibition … SAR set” value in experiment [1] is given as “somewhat effective at inhibiting the hCMG”.

Take `CO[C@@H]1[C@@H](O)[C@@H](O)[C@H](Oc2ccc3c(O)c(NC(=O)c4ccc(O)c(CC=C(C)C)c4)c(=O)oc3c2C)OC1(C)C` [MBC-D3, N-(7-(((2R,3R,4S,5R)-3,4-Dihydroxy-5-methoxy-6,6-dimethyltetrahydro-2H-pyran-2-yl)oxy)-4-hydroxy-8-methyl-2-oxo-2H-chromen-3-yl)-4-hydroxy-3-(3-methylbut-2-en-1-yl)benzamide]: the “inhibition … SAR set” value in experiment [1] was “this inhibition of the hCMG is diminished when the noviose sugar is added”.

As to `O=C(O)c1cn(C2CC2)c2cc(N3CCNCC3)c(F)cc2c1=O` [ciprofloxacin], the “hCMG helicase inhibition by quinolones” value in experiment [1] (100 μM or 1000 μM) is given as “do not inhibit the purified hCMG helicase”.

`COc1cc([C@@H]2c3cc4c(cc3[C@@H](O[C@@H]3O[C@@H]5CO[C@@H](C)O[C@H]5[C@H](O)[C@H]3O)[C@H]3COC(=O)[C@H]23)OCO4)cc(OC)c1O` [etoposide]: in experiment [3], the “DNA polymerases-a and -d on chromatin” value is listed as “small change”; the “replisome components or RPA on chromatin” value was “does not significantly diminish replisome components or RPA on chromatin”. The “hCMG helicase inhibition by etoposide” value in experiment [1] (fork-unwinding) was “does not inhibit hCMG activity”. Also, in experiment [1] (fork-unwinding, listed as Etoposide), the “hCMG helicase inhibition by etoposide” value is listed as “no effect on hCMG helicase activity in vitro”. Moreover, in the experiment on HaCaT cells, the “DNA replication (BrdU), early S-phase treatment” value was “effectively suppressed DNA replication”.

Consider “(3R,4S,5R,6R)-5-Hydroxy-6-((4-hydroxy-3-(4-hydroxy-3-(3-methylbut-2-en-1-yl)benzamido)-8-methyl-2-oxo-2H-chromen-7-yl)oxy)-3-methoxy-2,2-dimethyltetrahydro-2H-pyran-4-yl [MBC]”, for which the “inhibition … SAR set” value in experiment [1] is “potently inhibit the hCMG”.
